We go through 16 molecules from patent US11292767B2, “Heterocyclic inhibitors of MCT4” (Vettore, LLC, priority 2016, dated 2022).

Data set [1] relates to CFA-induced arthritis. Description: Adjuvant-induced arthritis model in rat: Difference of Weight Bearing test (DWB). In kind it is in vivo. Particulars: SD rat, PO 3 days post CFA, compared to dexamethasone.
Data set [2] is described as follows: Metabolic stability in rat liver microsomes (in vitro t1/2). In kind it is in vitro ADME. Particulars: rat liver microsomes 0.5 mg/mL, 2 μM compound, % remaining at 60 min. The protocol: (§1) Metabolic Stability Assays The following are assays that may be used to evaluate the metabolic stability of compounds of Formula (I) in human, rat, or mouse microsomes. The assays follow a common procedure recited below. 1. […] Two separated experiments were performed as follows. a) With NADPH: 10 μL of 20 mg/mL liver microsomes and 40 μL of 10 mM NADPH were added to the incubations. […] The final concentration of microsomes was 0.5 mg/mL. 3. The reaction was started with the addition of 4 μL of 200 μM control compound or test compound solutions. Verapamil was used as positive control in this study. The final concentration of test compound or control compound was 2 μM. 4. Aliquots of 50 μL were taken from the reaction solution at 0, 15, 30, 45 and 60 min. […] Samples were centrifuged at 3,220 g for 40 minutes. A 90 μL aliquot of the supernatant was mixed with 90 μL of ultra-pure H2O and then used for LC-MS/MS analysis. 5. Data analysis. All calculations were carried out using Microsoft Excel. Peak areas were determined from extracted ion chromatograms. The slope value, k, was determined by linear regression of the natural logarithm of the remaining percentage of the parent drug vs. incubation time curve. The in vitro half-life (in vitro t1/2) was determined from the slope value: in vitro t1/2=−(0.693)/k.

Data set [3] in a line: Metabolic stability in human liver microsomes (in vitro t1/2). In kind it is in vitro ADME. Particulars: human liver microsomes 0.5 mg/mL, 2 μM compound; for Human microsome % 60 min: % remaining at 60 min; for Human microsome t1/2, min: in vitro t1/2. Here is the method:
as §1
For orientation: Microsomes from liver hold many membrane-bound enzymes, among them those of drug oxidation.

The nature of data set [4]: Pharmacokinetic assay in rat (IV 3 mg/kg, PO 10 mg/kg). The format is in vivo. Particulars: male, Sprague-Dawley, plasma, read-out: Rat F (%). An excerpt: Pharmacokinetic Assays in Mouse and Rat
The following are assays that may be used to evaluate the pharmacokinetic properties of Formula (I) in mouse or rat. The assays follow a common procedure recited below.
1. […] For PO (oral gavage), DMSO/PEG400 (10:90). Formulations freshly prepared on the day of dosing or prior to dosing. Storage at room temperature.
2. Test Species: For Mouse: Male CD1 strain, approximately 6-8 weeks in age, approximately 20-30 g. For Rat: Male Sprague-Dawley strain, approximately 6-8 weeks in age, approximately 200-300 g.
3. Dose Level: For IV, 3 mg/kg. For PO, 10 mg/kg.
4. Number of animals: 3 per assay.
5. PK time points: For IV (plasma): 5 min, 15 min, 1, 2, 4, 6, 8, 24 h post dose. For PO (plasma): 15 min, 30 min, 1, 2, 4, 6, 8, 24 h post dose.
6. Blood Sample Collection and Processing. Blood was collected (˜0.2 mL per time point) from jugular vein. Blood of each sample was transferred into plastic micro centrifuge tubes containing anticoagulant of EDTA-K2. Blood samples were centrifuged at 2,000 g for 5 minutes at 4° C. to obtain plasma.
7. Samples Analysis: Plasma samples were analyzed using LC/MS/MS method, and pharmacokinetic parameters (half-life: t1/2; oral bioavailability: F; volume of distribution: Vss).

Data set [5] deals with CFA-induced arthritis. Description: Adjuvant-induced arthritis model in rat: Mechanical Allodynia test (MA). The format is in vivo. Particulars: SD rat, PO 3 days post CFA, compared to dexamethasone.
Data set [6] in a line: Metabolic stability in mouse liver microsomes (in vitro t1/2). In kind it is in vitro ADME. Particulars: mouse liver microsomes 0.5 mg/mL, 2 μM compound; for Mouse microsome % 60 min: % remaining at 60 min; for Mouse microsome t1/2, min: in vitro t1/2. The protocol:
as §1

Molecules are shown by their SMILES. Bounds are passed on as bounds.

As to `Cc1ccccc1-n1nc(COC(C)(C)C(=O)O)cc1-c1cccc(OC2CCC2)c1` [Example 161, 2-([5-(3-Cyclobutoxyphenyl)-1-(2-methylphenyl)-1H-pyrazol-3-yl]-methoxy)-2-methylpropanoic acid], the “Difference in Weight Bearing, Minimal Efficacious Dose” value (shortened to “Difference in Weight Bearing”) with CFA-induced arthritis [1] is no more than 10 mg/kg. The “Rat microsome % 60 min” value in data set [2] was 80%. Besides, the “Human microsome % 60 min” value in data set [3] was 82%. The bioavailability in data set [4] worked out at 61%. In the data set with CFA-induced arthritis [5], the “Mechanical Allodynia (Von Frey), Minimal Efficacious Dose” value (“Mechanical Allodynia (Von Frey)” below) was no more than 10 mg/kg. In data set [6], the “Mouse microsome % 60 min” value was 99% and the “Mouse microsome t1/2, min” value is on record as “∞”.
On to `CC(C)(OCc1cc(-c2cccc(OC3CCC3)c2)n(-c2ccccc2Cl)n1)C(=O)O` [Example 175, 2-([1-(2-Chlorophenyl)-5-(3-cyclo-butoxyphenyl)-1H-pyrazol-3-yl]-methoxy)-2-methylpropanoic acid], for which the “Difference in Weight Bearing” value in the data set with CFA-induced arthritis [1] is given as greater than 10 mg/kg. For the same molecule, the “Rat microsome % 60 min” value in data set [2] was 87%. Further, in data set [3], the “Human microsome % 60 min” value is listed as 83%. Further, in data set [4], the bioavailability is 48%. The “Mechanical Allodynia (Von Frey)” value in the data set on CFA-induced arthritis [5] is greater than 10 mg/kg. In data set [6], the “Mouse microsome % 60 min” value was 94%.
For the molecule `COc1cc(OC)cc(-c2cc(COC(C)(C)C(=O)O)nn2-c2ccccc2Cl)c1` [Example 179, 2-([1-(2-Chlorophenyl)-5-(3,5-dimethoxyphenyl)-1H-pyrazol-3-yl]-methoxy)-2-methylpropanoic acid], in the data set with CFA-induced arthritis [1], the “Difference in Weight Bearing” value is reported as no more than 10 mg/kg. Besides, in data set [2], the “Rat microsome % 60 min” value came to 85%. In addition, the “Human microsome % 60 min” value in data set [3] is recorded as 93%. Moreover, the bioavailability in data set [4] was found to be 76%. The “Mechanical Allodynia (Von Frey)” value in the data set on CFA-induced arthritis [5] is no more than 10 mg/kg. Moreover, in data set [6], the “Mouse microsome % 60 min” value is on record as 98% and the “Mouse microsome t1/2, min” value is recorded as “∞”.
As to `CCOc1cc(OCC)cc(-c2cc(COC(C)(C)C(=O)O)nn2-c2ccccc2Cl)c1` [Example 180, 2-([1-(2-Chlorophenyl)-5-(3,5-diethoxy-phenyl)-1H-pyrazol-3-yl]methoxy)-2-methylpropanoic acid], the “Difference in Weight Bearing” value with CFA-induced arthritis [1] is given as greater than 10 mg/kg. Moreover, the “Rat microsome % 60 min” value in data set [2] is on record as 98%. In data set [3], the “Human microsome % 60 min” value stood at 88%. In data set [4], the bioavailability amounted to 49%. Besides, the “Mechanical Allodynia (Von Frey)” value with CFA-induced arthritis [5] was greater than 10 mg/kg. In data set [6], the “Mouse microsome t1/2, min” value is “∞”.
As for `Cc1ccccc1-n1nc(COC(C)(C)C(=O)O)cc1-c1cccc(OC2CC2)c1` [Example 188, 2-([5-(3-Cyclopropoxyphenyl)-1-(2-methylphenyl)-1H-pyrazol-3-yl]-methoxy)-2-methylpropanoic acid], the “Rat microsome % 60 min” value in data set [2] is 87%. In data set [3], the “Human microsome t1/2, min” value is recorded as “∞”. For the same molecule, in data set [6], the “Mouse microsome % 60 min” value is listed as 92%.
On to `Cn1ncc2cccc(-n3nc(COC(C)(C)C(=O)O)cc3-c3cccc(OC4CC4)c3)c21` [Example 191, 2-([5-(3-Cyclopropoxyphenyl)-1-(1-methyl-1H-indazol-7-yl)-1H-pyrazol-3-yl]methoxy)-2-methylpropanoic acid], for which the “Difference in Weight Bearing” value with CFA-induced arthritis [1] is greater than 10 mg/kg. Also, the “Rat microsome % 60 min” value in data set [2] came to 94%. For the same molecule, the “Human microsome % 60 min” value in data set [3] is 98%. For the same molecule, the bioavailability in data set [4] came out at 97%. In the data set on CFA-induced arthritis [5], the “Mechanical Allodynia (Von Frey)” value is on record as greater than 10 mg/kg. For the same molecule, the “Mouse microsome % 60 min” value in data set [6] is listed as 97%.
On to `CCOc1ccccc1Cn1nc(COC(C)(C)C(=O)O)cc1-c1cc(Cl)cc(OC)c1` [Example 196, 2-([5-(3-Chloro-5-methoxyphenyl)-1-[(2-ethoxyphenyl)methyl]-1H-pyrazol-3-yl]methoxy)-2-methylpropanoic acid], for which, in data set [2], the “Rat microsome % 60 min” value turned out to be 32%. Further, in data set [3], the “Human microsome % 60 min” value came to 62%. Also, the “Mouse microsome % 60 min” value in data set [6] was found to be 33%.
Turning to `CCOc1ccccc1Cn1nc(COC(C)(C)C(=O)O)cc1-c1ccc2cnn(CC)c2c1` [Example 198, 2-([1-[(2-Ethoxyphenyl)methyl]-5-(1-ethyl-1H-indazol-6-yl)-1H-pyrazol-3-yl]methoxy)-2-methylpropanoic acid], the “Rat microsome % 60 min” value in data set [2] is reported as 82%. Further, the “Human microsome % 60 min” value in data set [3] was 80%. Also, the “Mouse microsome % 60 min” value in data set [6] came out at 84%.
On to `CCOc1ccccc1Cn1nc(COC(C)(C)C(=O)O)cc1-c1cccc(OC2CC2)c1` [Example 201, 2-([5-(3-Cyclopropoxyphenyl)-1-[(2-ethoxyphenyl)methyl]-1H-pyrazol-3-yl]-methoxy)-2-methylpropanoic acid], for which the “Rat microsome % 60 min” value in data set [2] came out at 39%. In data set [3], the “Human microsome % 60 min” value came to 58%. For the same molecule, the “Mouse microsome % 60 min” value in data set [6] is given as 58%.
Take `CC(C)(OCc1cc(-c2cccc(OC3CC3)c2)n(Cc2ccccc2N2CCCC2)n1)C(=O)O` [Example 202, 2-([5-(3-Cyclopropoxyphenyl)-1-[[2-(pyrrolidin-1-yl)phenyl]methyl]-1H-pyrazol-3-yl]methoxy)-2-methylpropanoic acid]: in data set [2], the “Rat microsome % 60 min” value worked out at 2%. In addition, in data set [3], the “Human microsome % 60 min” value is on record as 32%. In addition, the “Mouse microsome % 60 min” value in data set [6] came out at 32%.
Take `CC(C)(OCc1cc(-c2cccc(OC3CC3)c2)n(-c2ccccc2N2CCCC2)n1)C(=O)O` [Example 221, 2-([5-(3-Cyclopropoxyphenyl)-1-[2-(pyrrolidin-1-yl)phenyl]-1H-pyrazol-3-yl]methoxy)-2-methylpropanoic acid]: the “Rat microsome % 60 min” value in data set [2] is recorded as 33%. Further, the “Human microsome % 60 min” value in data set [3] is reported as 56%. Moreover, the “Mouse microsome % 60 min” value in data set [6] is reported as 34%.
As for `CC[C@@](C)(OCc1cc(-c2cc(OC)cc(OC)c2)n(-c2ccccc2Cl)n1)C(=O)O` [Example 222, (2R)-2-([1-(2-Chlorophenyl)-5-(3,5-dimethoxyphenyl)-1H-pyrazol-3-yl]-methoxy)-2-methylbutanoic acid], the “Rat microsome % 60 min” value in data set [2] is on record as 90%. In addition, in data set [3], the “Human microsome % 60 min” value came to 110% and the “Human microsome t1/2, min” value is “∞”. The “Mouse microsome % 60 min” value in data set [6] was found to be 94%.
As to `Cn1ncc2ccc(-c3cc(COC(C)(C)C(=O)O)nn3Cc3ccccc3Cl)cc21` [Example 226, 2-([1-[(2-Chlorophenyl)methyl]-5-(1-methyl-1H-indazol-6-yl)-1H-pyrazol-3-yl]methoxy)-2-methylpropanoic acid], the “Rat microsome % 60 min” value in data set [2] stood at 88%. Also, the “Human microsome % 60 min” value in data set [3] is 95%. In addition, the “Mouse microsome % 60 min” value in data set [6] turned out to be 95%.
Consider `CCOc1cccc(-n2nc(COC(C)(C)C(=O)O)cc2-c2cc(OC)cc(OC)c2)c1` [Example 243, 2-([5-(3,5-Dimethoxyphenyl)-1-(3-ethoxyphenyl)-1H-pyrazol-3-yl]-methoxy)-2-methylpropanoic acid], for which the “Rat microsome % 60 min” value in data set [2] came to 88%. Further, the “Human microsome % 60 min” value in data set [3] is recorded as 88%. Further, the “Mouse microsome % 60 min” value in data set [6] was 97%.
Regarding `CCCn1ncc2ccc(-c3cc(COC(C)(C)C(=O)O)nn3-c3ccccc3N3CCC3)cc21` [Example 246, 2-([1-[2-(Azetidin-1-yl)phenyl]-5-(1-propyl-1H-indazol-6-yl)-1H-pyrazol-3-yl]methoxy)-2-methylpropanoic acid], the “Rat microsome % 60 min” value in data set [2] is reported as 69%. The “Human microsome % 60 min” value in data set [3] is listed as 65%. For the same molecule, in data set [4], the bioavailability is 52%. Further, the “Mouse microsome % 60 min” value in data set [6] came out at 81%.
The corresponding values for `COc1cc(OC)cc(-c2cc(COC(C)(C)C(=O)O)nn2-c2ccccc2N2CCC2)c1` [Example 251, 2-((1-(2-(Azelidin-1-yl)phenyl)-5-(3,5-dimethoxyphenyl)-1H-pyrazol-3-yl)methoxy)-2-methylpropanoic acid] are 83%, 77%, 98% and 63%.
